These results are taken from ChEMBL document CHEMBL1201862, “PubChem BioAssay data set” (2004).

Structures are written as SMILES.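 Values below derive from 48-hour exposures of cells grown in 96-well plates, with endpoints linearly interpolated between the two concentrations bracketing the appropriate inhibition level. Here, GI50 denotes the concentration required for 50% inhibition of growth.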 Calls of active or inactive are those of the source. Cut-off read from the data, not from the text of the source: active = GI50 up to about 1.1 µM and inactive = higher. Some results are limits rather than exact numbers.

Among the test systems are CAKI-1; HCT-116; HCT-15; HL-60; Hs-578T; LOX IMVI; MDA-N; Malme-3M; NCI-H522; PC-3; SF-295; SF-539; SK-MEL-2; SK-MEL-5; SNB-19; SR; U-251; UO-31; DMS-273.
Common to all, as to test: inhibition of tumour cell growth, NCI panel, 48 h

For the compound `Oc1cc(-c2ccccc2Cl)nc2cc3c(cc12)OCO3`, the GI50 with CAKI-1 is 0.0573 µM (active); in the test on HCT-116, 0.0528 µM (active); in the test with HCT-15, 0.0371 µM; in the test with HL-60, 0.0207 µM (active); with Hs-578T, 0.44 µM (active); with LOX IMVI, 0.0541 µM (active). For the same compound, the GI50 was 0.0158 µM (active) in the test with MDA-N; 0.0598 µM (active) with Malme-3M; 0.0653 µM (active) in the test on NCI-H522; 0.0451 µM (active) with PC-3; 0.107 µM (active) in the test with SF-295; 0.103 µM (active) in the test with SF-539. Also, the GI50 with SK-MEL-2 was 0.0719 µM (active); in the test with SK-MEL-5 it was 0.0435 µM (active); in the test with SNB-19 it was 0.144 µM (active); in the test with SR it was 0.0562 µM (active); in the test with U-251, 0.0736 µM (active); in the test with UO-31, 0.224 µM (active).
Take `c1ccc2c(c1)[nH]c1c3ccccc3sc21`: the GI50 in the test on CAKI-1 is > 100 µM (inactive); with HCT-116, 82.6 µM (inactive); in the test with HCT-15 it was above 100 µM; in the test on HL-60, > 100 µM (inactive); in the test on Hs-578T it was > 100 µM (inactive); with LOX IMVI it was > 100 µM (inactive). Besides, the GI50 was > 100 µM (inactive) with MDA-N; > 100 µM (inactive) in the test on Malme-3M; > 100 µM (inactive) in the test with NCI-H522; > 100 µM (inactive) in the test on PC-3; 38.1 µM (inactive) with SF-295; > 100 µM (inactive) in the test with SF-539. Besides, the GI50 was > 100 µM (inactive) with SK-MEL-2; > 100 µM (inactive) with SK-MEL-5; > 100 µM (inactive) with SNB-19; 23 µM (inactive) with SR; 89.3 µM (inactive) with U-251; > 100 µM (inactive) in the test with UO-31.
Turning to `O=C(O)CN1CCN2CCCCCN(CC1)CCN(CC(=O)O)CC2`, the GI50 is > 100 µM (inactive) in the test on CAKI-1; 73.8 µM (inactive) with HCT-116; above 100 µM in the test on HCT-15; 5.26 µM (inactive) with HL-60; 31.8 µM (inactive) in the test on Hs-578T; > 100 µM (inactive) with LOX IMVI. Further, the GI50 in the test on MDA-N was > 100 µM (inactive); with Malme-3M it was 22.4 µM (inactive); in the test with NCI-H522, 53.3 µM (inactive); in the test on PC-3 it was > 100 µM (inactive); in the test on SF-295, > 100 µM (inactive); in the test on SF-539, > 100 µM (inactive). The GI50 with SK-MEL-2 is > 100 µM (inactive); in the test with SK-MEL-5 it was > 100 µM (inactive); in the test with SNB-19 it was > 100 µM (inactive); with SR, 45.1 µM (inactive); in the test on U-251 it was > 100 µM (inactive); in the test on UO-31, > 100 µM (inactive).
With `CC1(S)CC2C(CC1Sc1ccccc1)C2(C)C` (stereo not drawn), the GI50 was > 100 µM (inactive) in the test on DMS-273; > 100 µM (inactive) in the test with HCT-116; above 100 µM in the test on HCT-15; > 100 µM (inactive) in the test on HL-60; > 100 µM (inactive) with Malme-3M; > 100 µM (inactive) in the test with SF-295. The GI50 in the test on SF-539 is > 100 µM (inactive); in the test with SK-MEL-2, > 100 µM (inactive); in the test with SK-MEL-5, 8.67 µM (inactive); in the test with U-251, > 100 µM (inactive); in the test on UO-31, > 100 µM (inactive).
On to `COC(=O)/C=C1/OC(c2ccccc2)=C(Cl)C1=O`, for which the GI50 in the test with CAKI-1 is 18.2 µM (inactive); with HCT-116, 13.1 µM (inactive); with HCT-15, 8.97 µM; with HL-60, 3.95 µM (inactive); in the test with Hs-578T it was 21.5 µM (inactive); in the test on LOX IMVI it was 13.6 µM (inactive). Also, the GI50 was 20.3 µM (inactive) with MDA-N; 18.4 µM (inactive) in the test on Malme-3M; 17.9 µM (inactive) in the test with NCI-H522; 15.2 µM (inactive) with PC-3; 27.7 µM (inactive) with SF-295; 19.8 µM (inactive) with SF-539. Moreover, the GI50 in the test with SK-MEL-2 is 21.3 µM (inactive); with SK-MEL-5 it was 14.9 µM (inactive); in the test on SNB-19, 31.3 µM (inactive); with SR it was 4.72 µM (inactive); in the test with U-251, 14 µM (inactive); in the test on UO-31 it was 20.9 µM (inactive).
With `NCC(O)CNC(=O)c1ccc(-c2ccc(-c3ccc(C(=O)NCC(O)CN)cc3)o2)cc1` (stereo not drawn), the GI50 in the test with CAKI-1 was 81.7 µM (inactive); in the test with HCT-116 it was 22.4 µM (inactive); in the test with HCT-15, 57.8 µM; in the test with HL-60, > 100 µM (inactive); in the test on Hs-578T, 25.3 µM (inactive); with LOX IMVI, 45 µM (inactive). In addition, the GI50 with MDA-N is > 100 µM (inactive); in the test with Malme-3M it was 21.7 µM (inactive); with NCI-H522, 33.3 µM (inactive); with PC-3, 21.2 µM (inactive); in the test on SF-295 it was 23.5 µM (inactive); in the test on SF-539, 19.1 µM (inactive). Also, the GI50 with SK-MEL-2 was 53.7 µM (inactive); in the test on SK-MEL-5 it was 33.3 µM (inactive); in the test with SNB-19, 22 µM (inactive); in the test on SR it was 67.5 µM (inactive); in the test with U-251 it was 21.5 µM (inactive); in the test on UO-31, 49.2 µM (inactive).
Take `CC(CCN)(CCN)[N+](=O)[O-]`: the GI50 in the test on CAKI-1 was > 100 µM (inactive); in the test with HCT-116 it was > 100 µM (inactive); with HCT-15, above 100 µM; with HL-60, > 100 µM (inactive); in the test with Hs-578T, > 100 µM (inactive); in the test on LOX IMVI, > 100 µM (inactive). Besides, the GI50 with MDA-N, in the test on Malme-3M, with NCI-H522, with PC-3, in the test on SF-295 and with SF-539 was > 100 µM (inactive) in each case. Besides, the GI50 in the test on SK-MEL-2, in the test with SK-MEL-5, with SNB-19, in the test with SR, with U-251 and in the test on UO-31 was > 100 µM (inactive) each time.
For `O=C(c1ccco1)N(C(=S)OC12CC3CC(CC(C3)C1)C2)c1ccccc1`, the GI50 was 33.3 µM (inactive) with CAKI-1; 19.9 µM (inactive) in the test on HCT-116; 28.2 µM in the test on HCT-15; 19.3 µM (inactive) in the test on HL-60; 32.6 µM (inactive) with Hs-578T; 26.7 µM (inactive) in the test with LOX IMVI. For the same compound, the GI50 in the test with MDA-N is 29.4 µM (inactive); in the test with Malme-3M it was 26.8 µM (inactive); in the test on NCI-H522 it was 19.9 µM (inactive); with PC-3 it was 20.5 µM (inactive); with SF-295 it was 27.7 µM (inactive); in the test with SF-539, 20.2 µM (inactive). Also, the GI50 was 21.2 µM (inactive) in the test with SK-MEL-2; 17.7 µM (inactive) with SK-MEL-5; 34.7 µM (inactive) in the test on SNB-19; 25.7 µM (inactive) in the test on SR; 23.3 µM (inactive) in the test with U-251; 24.9 µM (inactive) in the test on UO-31.
With `Clc1ccc(-c2nnc3sc4nc5ccccc5c-4nn23)c(Cl)c1`, the GI50 in the test with CAKI-1 is 34.7 µM (inactive); with HCT-116, 40.7 µM (inactive); in the test with HCT-15, 34.9 µM; in the test on HL-60 it was 41.7 µM (inactive); in the test with Hs-578T, 21.7 µM (inactive); in the test on LOX IMVI it was 44 µM (inactive). Moreover, the GI50 with MDA-N is 28.6 µM (inactive); in the test on Malme-3M, 49.4 µM (inactive); in the test with NCI-H522, 26.2 µM (inactive); in the test with PC-3 it was 43.3 µM (inactive); in the test with SF-295 it was 36.2 µM (inactive); in the test with SF-539 it was 50.9 µM (inactive). In addition, the GI50 is 30.6 µM (inactive) in the test with SK-MEL-2; 42.8 µM (inactive) with SK-MEL-5; 49.4 µM (inactive) in the test on SNB-19; 44.9 µM (inactive) in the test on SR; 36.6 µM (inactive) in the test on U-251; 62.4 µM (inactive) in the test with UO-31.
Take `COc1c(-c2nc3ccc(N4CCN(C)CC4)cc3[nH]2)cc(OC)c2[nH]c(COC(C)=O)nc12`: the GI50 with CAKI-1 is > 100 µM (inactive); in the test on HCT-116 it was 32.4 µM (inactive); in the test on HCT-15, above 100 µM; with HL-60, 59.8 µM (inactive); in the test with Hs-578T it was > 100 µM (inactive); in the test on LOX IMVI, 30.8 µM (inactive). In addition, the GI50 was 40.4 µM (inactive) in the test on MDA-N; 25.1 µM (inactive) in the test on Malme-3M; 48.9 µM (inactive) in the test with NCI-H522; 37.1 µM (inactive) in the test with PC-3; 71.8 µM (inactive) in the test on SF-295; 36.6 µM (inactive) in the test with SF-539. In addition, the GI50 was 45.9 µM (inactive) in the test with SK-MEL-2; 94.6 µM (inactive) in the test on SK-MEL-5; 36 µM (inactive) in the test on SNB-19; 27.8 µM (inactive) in the test with SR; 48.3 µM (inactive) with U-251; 42.3 µM (inactive) in the test with UO-31.
Take `CC(C)C[C@H](NC(=O)[C@H](Cc1cccc2ccccc12)NS(=O)(=O)c1cccc2cccnc12)B(O)O`: the GI50 was 0.0923 µM (active) in the test on CAKI-1; < 0.0133 µM (active) in the test on HCT-116; 0.227 µM with HCT-15; < 0.01 µM (active) with HL-60; < 0.0199 µM (active) with Hs-578T; < 0.0118 µM (active) in the test on LOX IMVI. Also, the GI50 is < 0.01 µM (active) with MDA-N; < 0.01 µM (active) in the test on Malme-3M; 0.0106 µM (active) in the test on NCI-H522; < 0.0272 µM (active) with PC-3; < 0.01 µM (active) in the test with SF-539; < 0.0158 µM (active) in the test with SK-MEL-2. The GI50 in the test on SK-MEL-5 was < 0.01 µM (active); in the test on SNB-19 it was < 0.0225 µM (active); with SR, < 0.0167 µM (active); in the test on U-251 it was 0.0264 µM (active); in the test on UO-31, 0.279 µM (active).
With `C=C1CC(Cn2ccc(=O)[nH]c2=O)(c2ccc(-c3ccccc3)cc2)OC1=O` (stereo not drawn), the GI50 was 1.16 µM (inactive) in the test with CAKI-1; 0.377 µM (active) in the test on HCT-116; 1.65 µM with HCT-15; 0.154 µM (active) with HL-60; 3.7 µM (inactive) in the test with Hs-578T; 0.493 µM (active) in the test on LOX IMVI. The GI50 is 1.03 µM (active) with MDA-N; 1.46 µM (inactive) in the test with Malme-3M; 0.836 µM (active) in the test with NCI-H522; 3.2 µM (inactive) in the test on PC-3; 12.5 µM (inactive) in the test with SF-295; 2.4 µM (inactive) with SF-539. Further, the GI50 in the test on SK-MEL-2 is 2.09 µM (inactive); in the test on SK-MEL-5, 1.16 µM (inactive); in the test with SNB-19 it was 16.9 µM (inactive); with SR, 0.995 µM (active); in the test with U-251, 12.1 µM (inactive); in the test on UO-31, 6.64 µM (inactive).
